Assay results: patent US20140100184A1, “SELECTIVE INHIBITORS OF HISTONE […] DOT1L” (BAYLOR COLLEGE OF MEDICINE, priority 2012, published 2014)
Structures can show the parent of a compound that is named as a salt. Where two headings read alike, the source gives them in different places.

Assays:
DOT1L [1] = target: T1, DOT1L (Homo sapiens, UniProt Q8TEK3); assay: Determination of Km values of SAM and substrate, DOT1L; format: biochemical; conditions: 30° C., 10 min, pH=8.0
T1 construct: Human DOT1 L(1-472) was expressed and purified as described in the literature; GST (N, cleaved yes); made in house; host or cells: E. coli BL21-CodonPlus (Agilent), plasmid pGEX-KG-hDOT1L(1-472)

CARM1 [2] = target: T2, CARM1 (Homo sapiens, UniProt Q86X55); conditions: read-out: Km value of SAM for CARM1
T2 sequence (Q86X55 1-608): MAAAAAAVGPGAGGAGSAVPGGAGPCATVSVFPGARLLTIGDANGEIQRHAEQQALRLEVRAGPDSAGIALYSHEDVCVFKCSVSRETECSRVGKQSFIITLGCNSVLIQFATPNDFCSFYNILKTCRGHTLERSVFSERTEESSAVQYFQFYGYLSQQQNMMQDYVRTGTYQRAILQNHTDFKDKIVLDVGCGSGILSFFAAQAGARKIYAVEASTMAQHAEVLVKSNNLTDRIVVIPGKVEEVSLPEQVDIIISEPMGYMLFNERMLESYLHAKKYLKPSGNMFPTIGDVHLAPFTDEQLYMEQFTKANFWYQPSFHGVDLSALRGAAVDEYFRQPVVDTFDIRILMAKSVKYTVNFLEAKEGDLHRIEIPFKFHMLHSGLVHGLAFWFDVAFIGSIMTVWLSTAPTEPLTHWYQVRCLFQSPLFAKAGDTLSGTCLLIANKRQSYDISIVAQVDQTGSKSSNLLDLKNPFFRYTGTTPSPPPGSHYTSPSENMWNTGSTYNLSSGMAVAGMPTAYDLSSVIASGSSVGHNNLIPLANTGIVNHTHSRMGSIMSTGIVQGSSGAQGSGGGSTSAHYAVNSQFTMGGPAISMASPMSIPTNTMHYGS

G9a [3] = target: T3, G9a (Mus musculus, UniProt Q9Z148); conditions: read-out: Km value of SAM for G9a
T3 sequence (Q9Z148 1-1263): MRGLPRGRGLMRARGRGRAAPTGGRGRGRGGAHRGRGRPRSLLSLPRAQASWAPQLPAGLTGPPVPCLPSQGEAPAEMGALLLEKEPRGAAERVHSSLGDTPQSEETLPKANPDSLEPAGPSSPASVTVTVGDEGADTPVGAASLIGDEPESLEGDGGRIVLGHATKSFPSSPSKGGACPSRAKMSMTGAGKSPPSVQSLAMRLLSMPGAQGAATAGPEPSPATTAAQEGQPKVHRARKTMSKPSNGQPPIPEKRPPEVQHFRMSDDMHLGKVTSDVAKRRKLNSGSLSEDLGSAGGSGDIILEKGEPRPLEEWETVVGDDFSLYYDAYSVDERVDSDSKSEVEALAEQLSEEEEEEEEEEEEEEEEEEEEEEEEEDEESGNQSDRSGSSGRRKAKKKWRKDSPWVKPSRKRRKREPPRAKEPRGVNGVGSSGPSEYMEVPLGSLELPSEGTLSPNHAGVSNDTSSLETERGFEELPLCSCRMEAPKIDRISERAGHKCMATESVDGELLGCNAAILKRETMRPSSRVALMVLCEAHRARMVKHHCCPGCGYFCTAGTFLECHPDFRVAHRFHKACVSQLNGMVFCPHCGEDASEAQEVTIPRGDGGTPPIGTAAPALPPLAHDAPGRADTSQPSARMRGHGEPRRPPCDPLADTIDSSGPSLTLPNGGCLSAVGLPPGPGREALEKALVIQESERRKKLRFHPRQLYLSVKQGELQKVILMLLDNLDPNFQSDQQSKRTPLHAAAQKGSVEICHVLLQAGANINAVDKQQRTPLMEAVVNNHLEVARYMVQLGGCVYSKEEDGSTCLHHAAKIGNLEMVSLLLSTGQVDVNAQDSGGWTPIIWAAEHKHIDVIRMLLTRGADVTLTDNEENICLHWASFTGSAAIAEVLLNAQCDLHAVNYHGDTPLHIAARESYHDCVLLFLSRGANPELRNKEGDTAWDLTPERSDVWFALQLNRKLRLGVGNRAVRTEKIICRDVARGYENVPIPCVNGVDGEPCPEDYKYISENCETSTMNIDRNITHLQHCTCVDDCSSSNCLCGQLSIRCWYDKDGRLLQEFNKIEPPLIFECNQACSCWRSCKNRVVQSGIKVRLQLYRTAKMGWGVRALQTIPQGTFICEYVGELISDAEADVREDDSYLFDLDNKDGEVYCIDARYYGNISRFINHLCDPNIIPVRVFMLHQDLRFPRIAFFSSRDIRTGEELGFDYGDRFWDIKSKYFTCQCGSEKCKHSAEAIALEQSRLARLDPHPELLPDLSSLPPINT

SUV39H1 [4] = target: T4, SUV39H1 (Homo sapiens, UniProt O43463); conditions: read-out: Km value of SAM for SUV39H1
T4 sequence (O43463 1-412): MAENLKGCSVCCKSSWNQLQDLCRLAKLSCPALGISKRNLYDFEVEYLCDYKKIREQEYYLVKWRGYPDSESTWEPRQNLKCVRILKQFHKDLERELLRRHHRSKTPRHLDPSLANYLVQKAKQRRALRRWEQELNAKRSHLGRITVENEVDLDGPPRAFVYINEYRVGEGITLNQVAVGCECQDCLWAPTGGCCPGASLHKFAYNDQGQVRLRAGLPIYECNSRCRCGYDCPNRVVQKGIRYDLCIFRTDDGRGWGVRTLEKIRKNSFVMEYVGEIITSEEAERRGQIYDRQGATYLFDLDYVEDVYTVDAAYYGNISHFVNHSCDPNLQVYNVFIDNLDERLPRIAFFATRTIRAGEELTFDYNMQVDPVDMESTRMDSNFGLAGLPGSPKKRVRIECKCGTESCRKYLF

DOT1L [5] = target: T1, DOT1L; conditions: literature values; read-out: Km value for DOT1L, recent publication; cited from earlier work
PRMT1 [6] = target: T5, PRMT1 (Homo sapiens, UniProt Q99873); conditions: read-out: Km value of SAM for PRMT1; from the literature; cited from earlier work
G9a [7] = target: T3, G9a; assay: Methyltransferase inhibition assay, G9a
SUV39H1 [8] = target: T4, SUV39H1; assay: biochemical; parameters: purchased BPS Biosciences (San Diego, Calif.)
[9] = system: CARM1, PRMT1, G9a and SUV39H1; assay: Inhibition of other methyltransferases, summarised over the panel; conditions: for activity against other methyltransferases: in words
CARM1 [10] = target: T2, CARM1; assay: biochemical; parameters: GST (from pGEX-KG vector) (N); made in house; host or cells: E. coli (as for hDOT1L); plasmid pGEX-KG-CARM1 from Dr. Qin Feng
PRMT1 [11] = target: T5, PRMT1; assay: Methyltransferase inhibition assay, PRMT1; format: biochemical; parameters: purchased BPS Biosciences (San Diego, Calif.)

T5 sequence (Q99873 whole entry): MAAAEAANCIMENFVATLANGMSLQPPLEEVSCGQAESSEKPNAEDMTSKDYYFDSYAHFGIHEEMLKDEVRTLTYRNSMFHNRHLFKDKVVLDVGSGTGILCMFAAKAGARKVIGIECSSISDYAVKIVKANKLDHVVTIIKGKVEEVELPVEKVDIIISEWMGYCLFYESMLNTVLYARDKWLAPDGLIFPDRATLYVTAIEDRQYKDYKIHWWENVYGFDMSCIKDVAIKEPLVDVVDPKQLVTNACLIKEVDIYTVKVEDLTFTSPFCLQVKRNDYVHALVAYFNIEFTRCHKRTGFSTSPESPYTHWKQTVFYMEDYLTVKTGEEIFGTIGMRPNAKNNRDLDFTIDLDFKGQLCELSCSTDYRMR
T1 sequence (Q8TEK3 1-472): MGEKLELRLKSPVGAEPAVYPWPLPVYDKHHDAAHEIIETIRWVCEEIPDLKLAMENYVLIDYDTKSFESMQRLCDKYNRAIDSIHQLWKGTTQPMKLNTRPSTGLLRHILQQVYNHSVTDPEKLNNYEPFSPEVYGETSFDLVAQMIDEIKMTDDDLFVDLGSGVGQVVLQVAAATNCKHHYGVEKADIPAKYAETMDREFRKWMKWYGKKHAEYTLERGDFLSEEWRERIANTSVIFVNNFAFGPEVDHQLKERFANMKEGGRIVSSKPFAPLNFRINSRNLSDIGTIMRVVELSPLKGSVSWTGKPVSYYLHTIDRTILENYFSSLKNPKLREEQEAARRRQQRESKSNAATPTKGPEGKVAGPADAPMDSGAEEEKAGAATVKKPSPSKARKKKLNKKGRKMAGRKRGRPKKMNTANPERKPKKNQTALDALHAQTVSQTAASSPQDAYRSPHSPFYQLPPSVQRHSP

Row | SMILES | Ki (G9a [7]) [µM] | IC50 (G9a [7]) [µM] | IC50 (SUV39H1 [8]) [µM] | IC50 (CARM1 [10]) [µM] | also measured
1 | C[S+](CC[C@H](N)C(=O)O)C[C@H]1O[C@@H](n2cnc3c(N)ncnc32)[C@H](O)[C@@H]1O (stereo partly drawn) [SAM, S-(5′-adenosyl)-L-methionine] |  |  |  |  | Km (DOT1L [1]): 0.76 µM; Km (CARM1 [2]): 1.6 µM; Km (G9a [3]): 14.1 µM; Km (SUV39H1 [4]): 27.9 µM; Km (DOT1L [5]): 0.65 µM; Km (PRMT1 [6]): 6 µM
2 | CNc1ncnc2c1ncn2[C@@H]1O[C@H](CSCC[C@H](N)C(=O)O)[C@@H](O)[C@H]1O [Compound 1, S-(N^6-Methyl-adenosyl)-L-homocysteine] | > 100 |  |  |  | 
3 | CNc1ncnc2c1ncn2[C@@H]1O[C@H](CN(CCI)CCC[C@H](N)C(=O)O)C(O)[C@@H]1O (stereo partly drawn) [Compound 5, N^δ-[5′-(N^6-Methyl-adenosyl)]-N^δ-(2-iodoethyl)-(S)-2,5-diaminopentanoic acid hydrochloride] |  | > 100 | > 100 | > 100 | activity against other methyltransferases [9]: essentially inactive
4 | N[C@@H](CCCN(CCI)C[C@H]1O[C@@H](n2cnc3c(NCc4ccccc4)ncnc32)[C@@H](O)C1O)C(=O)O (stereo partly drawn) [Compound 6, N^δ-[5′-(N^6-Benzyl-adenosyl)]-N^δ-(2-iodoethyl)-(S)-2,5-diaminopentanoic acid hydrochloride] |  | > 100 | > 100 | > 100 | IC50 (PRMT1 [11]): > 100 µM; activity against other methyltransferases [9]: essentially inactive
5 | Nc1ncnc2c1ncn2[C@@H]1O[C@H](CSCC[C@H](N)C(=O)O)[C@@H](O)[C@H]1O [SAH, S-(5′-adenosyl)-L-homocysteine, reference compound] | 0.57 |  |  |  | 
6 | Nc1ncnc2c1ncn2[C@@H]1O[C@H](CN(CCI)CCC[C@H](N)C(=O)O)C(O)[C@@H]1O (stereo partly drawn) [Compound 4, N^δ-(5′-Adenosyl)-N^δ-(2-iodoethyl)-(S)-2,5-diaminopentanoic-acid hydrochloride] |  | 1.8 | > 100 | 1.1 | IC50 ([9]; read-out: IC50 values on other methyltransferases, span over the four enzymes): ≥ 1.1 µM
7 | Nc1ncnc2c1ncn2[C@@H]1O[C@H](CN(CCI)CC[C@H](N)C(=O)O)C(O)[C@@H]1O (stereo partly drawn) [Compound 3, N^γ-(5′-Adenosyl)-N^γ-(2-iodoethyl)-(S)-2,4-diaminobutyric acid hydrochloride] |  | > 100 | > 100 | 46.4 | 
8 | N[C@@H](CCSC[C@H]1O[C@@H](n2cnc3c(NCc4ccccc4)ncnc32)[C@H](O)[C@@H]1O)C(=O)O [Compound 2, S-(N^6-Benzyl-adenosyl)-L-homocysteine] | > 100 |  |  |  | activity on G9a (G9a [7]): inactive; Ki (SUV39H1 [8]): > 100 µM; Ki (CARM1 [10]): 18 µM
